Laboratory results reported in ChEMBL document CHEMBL1909046, “DrugMatrix in vitro pharmacology data”.

Experiments:
Adenosine receptor A1 = target: T1, Adenosine receptor A1 (Homo sapiens, UniProt P30542); type: cell membranes, CHO, Membrane; details: cho;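 further: radioligand binding assay at the adenosine A1 receptor, with DPCPX serving as the labelled ligand; in other assays of this panel Not Active means under 50% inhibition at 10 µM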
T1 sequence (P30542 whole entry): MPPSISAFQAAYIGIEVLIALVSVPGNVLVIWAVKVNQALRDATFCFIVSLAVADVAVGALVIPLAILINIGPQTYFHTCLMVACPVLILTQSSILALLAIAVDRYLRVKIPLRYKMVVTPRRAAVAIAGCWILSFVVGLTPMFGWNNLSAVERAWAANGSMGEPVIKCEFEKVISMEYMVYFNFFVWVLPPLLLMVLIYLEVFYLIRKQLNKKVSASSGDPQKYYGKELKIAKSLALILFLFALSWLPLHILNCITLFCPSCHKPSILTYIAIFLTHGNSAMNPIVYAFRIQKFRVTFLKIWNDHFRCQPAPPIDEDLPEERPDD

Adenosine receptor A3 = target: T2, Adenosine receptor A3 (Homo sapiens, UniProt P0DMS8); type: cell membranes, CHO-K1, Membrane; details: cho-k1;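 further: radioligand binding assay with AB-MECA serving as the labeled ligand; in other assays of this panel Not Active means under 50% inhibition at 10 µM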
T2 sequence (P0DMS8 whole entry): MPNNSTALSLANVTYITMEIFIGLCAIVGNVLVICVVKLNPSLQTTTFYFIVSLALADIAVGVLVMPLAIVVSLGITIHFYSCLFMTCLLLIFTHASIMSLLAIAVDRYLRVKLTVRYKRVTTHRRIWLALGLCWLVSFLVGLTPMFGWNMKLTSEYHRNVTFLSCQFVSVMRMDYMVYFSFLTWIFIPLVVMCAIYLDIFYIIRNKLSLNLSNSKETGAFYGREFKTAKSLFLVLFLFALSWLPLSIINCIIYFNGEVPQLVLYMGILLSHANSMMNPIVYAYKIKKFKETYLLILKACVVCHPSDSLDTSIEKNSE

D(4) dopamine receptor = target: T3, D(4) dopamine receptor (Homo sapiens, UniProt P21917); experiment: DRUGMATRIX: Dopamine D4.2 radioligand binding (ligand: [3H] Spiperone); type: cell membranes, CHO-K1, Membrane; details: cho-k1; Not Active = under 50% inhibition at 10 µM
T3 sequence (P21917 whole entry): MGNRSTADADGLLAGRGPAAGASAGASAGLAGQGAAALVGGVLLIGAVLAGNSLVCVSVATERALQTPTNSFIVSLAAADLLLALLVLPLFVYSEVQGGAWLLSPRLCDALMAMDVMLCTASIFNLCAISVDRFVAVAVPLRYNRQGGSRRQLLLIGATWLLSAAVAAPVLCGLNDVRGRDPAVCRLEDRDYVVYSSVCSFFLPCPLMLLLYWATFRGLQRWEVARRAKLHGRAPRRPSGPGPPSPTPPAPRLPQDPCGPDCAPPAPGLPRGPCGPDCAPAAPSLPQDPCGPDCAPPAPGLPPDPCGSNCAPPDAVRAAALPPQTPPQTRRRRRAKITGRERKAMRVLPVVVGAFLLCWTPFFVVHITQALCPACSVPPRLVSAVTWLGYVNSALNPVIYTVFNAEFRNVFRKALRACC

[1] = DRUGMATRIX: Glutamate, AMPA radioligand binding (ligand: [3H] AMPA); type: cell membranes, Rattus norvegicus, Wistar, Cerebral cortex, Membrane; details: Not Active = under 50% inhibition at 10 µM
[2] = DRUGMATRIX: beta-Lactamase enzyme inhibition (substrate: Nitrocefin); set-up: species or system Bacillus cereus; details: Not Active = under 50% inhibition at 10 µM
[3] = target: 5-hydroxytryptamine receptor 6 (Homo sapiens, UniProt P50406); type: cell membranes, HeLa, Membrane; details: hela; further: in other assays of this panel Not Active means under 50% inhibition at 10 µM
[4] = target: T4, Angiotensin-converting enzyme (Oryctolagus cuniculus, UniProt P12822); experiment: biochemical; type: tissue-based, Lung;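 further: enzymatic inhibition of angiotensin-converting enzyme measured with FAPGG as the substrate; in other assays of this panel Not Active means under 50% inhibition at 10 µM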
T4 sequence (P12822 whole entry): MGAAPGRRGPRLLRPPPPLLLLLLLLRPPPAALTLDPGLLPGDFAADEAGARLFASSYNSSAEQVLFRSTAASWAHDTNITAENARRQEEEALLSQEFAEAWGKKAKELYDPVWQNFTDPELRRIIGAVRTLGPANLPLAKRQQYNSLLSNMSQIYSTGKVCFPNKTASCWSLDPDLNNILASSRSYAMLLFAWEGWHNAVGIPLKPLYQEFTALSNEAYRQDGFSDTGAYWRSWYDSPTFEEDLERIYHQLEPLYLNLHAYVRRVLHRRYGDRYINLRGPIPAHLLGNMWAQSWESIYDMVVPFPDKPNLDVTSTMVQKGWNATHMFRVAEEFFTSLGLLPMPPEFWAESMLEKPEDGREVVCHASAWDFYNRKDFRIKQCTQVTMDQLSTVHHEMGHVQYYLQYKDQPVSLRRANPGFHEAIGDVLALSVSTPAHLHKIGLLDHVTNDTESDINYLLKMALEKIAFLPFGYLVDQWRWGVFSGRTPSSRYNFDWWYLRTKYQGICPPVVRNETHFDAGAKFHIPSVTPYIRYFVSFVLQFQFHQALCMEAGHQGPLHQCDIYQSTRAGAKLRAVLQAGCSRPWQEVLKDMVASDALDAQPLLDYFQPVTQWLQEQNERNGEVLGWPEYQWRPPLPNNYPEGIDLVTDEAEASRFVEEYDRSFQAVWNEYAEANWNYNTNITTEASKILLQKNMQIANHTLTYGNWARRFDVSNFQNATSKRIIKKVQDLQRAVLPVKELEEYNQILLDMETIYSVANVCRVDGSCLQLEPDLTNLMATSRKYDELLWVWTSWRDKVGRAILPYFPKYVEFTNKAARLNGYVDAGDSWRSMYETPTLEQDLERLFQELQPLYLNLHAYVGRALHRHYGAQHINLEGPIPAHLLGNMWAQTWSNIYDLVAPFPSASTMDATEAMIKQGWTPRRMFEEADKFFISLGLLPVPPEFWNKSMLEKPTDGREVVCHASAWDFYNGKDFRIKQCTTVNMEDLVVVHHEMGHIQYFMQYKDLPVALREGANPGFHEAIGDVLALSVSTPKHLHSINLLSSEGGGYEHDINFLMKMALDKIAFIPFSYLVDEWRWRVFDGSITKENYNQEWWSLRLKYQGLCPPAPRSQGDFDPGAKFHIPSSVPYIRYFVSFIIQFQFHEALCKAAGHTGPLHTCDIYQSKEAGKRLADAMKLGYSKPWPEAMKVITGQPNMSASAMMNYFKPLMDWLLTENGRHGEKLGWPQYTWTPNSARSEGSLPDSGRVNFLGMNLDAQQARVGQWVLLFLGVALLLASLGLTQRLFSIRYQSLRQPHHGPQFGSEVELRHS

Chain of 5-hydroxytryptamine receptor 6 (P50406 whole entry): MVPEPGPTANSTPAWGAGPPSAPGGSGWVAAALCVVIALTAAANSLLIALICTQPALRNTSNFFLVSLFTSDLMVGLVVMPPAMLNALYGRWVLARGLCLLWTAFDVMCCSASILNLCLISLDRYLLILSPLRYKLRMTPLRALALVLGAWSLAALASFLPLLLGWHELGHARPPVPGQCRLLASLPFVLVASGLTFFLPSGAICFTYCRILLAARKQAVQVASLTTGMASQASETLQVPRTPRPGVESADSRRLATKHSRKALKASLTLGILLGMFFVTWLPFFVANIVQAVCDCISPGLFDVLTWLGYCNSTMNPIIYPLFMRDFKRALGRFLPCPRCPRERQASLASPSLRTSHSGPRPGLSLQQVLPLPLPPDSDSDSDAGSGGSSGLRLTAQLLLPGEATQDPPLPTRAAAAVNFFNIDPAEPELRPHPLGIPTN

Cc1nnc(NS(=O)(=O)c2ccc(N)cc2)s1 [SULFAMETHIZOLE]
Not Active: IC50 (Adenosine receptor A1) | IC50 (Adenosine receptor A3) | IC50 (D(4) dopamine receptor) | IC50 [1] | Ki [1] | IC50 [2] | Ki [2] | IC50 [3] | IC50 [4]

C[C@]12CCC(=O)C[C@@H]1CC[C@@H]1[C@@H]2CC[C@]2(C)[C@@H](O)CC[C@@H]12 [STANOLONE]
Not Active: IC50 (Adenosine receptor A1) | IC50 (Adenosine receptor A3) | IC50 (D(4) dopamine receptor) | IC50 [1] | Ki [1] | IC50 [2] | Ki [2] | IC50 [3] | IC50 [4]

CO[C@@]12[C@H](COC(N)=O)C3=C(C(=O)C(C)=C(N)C3=O)N1C[C@@H]1N[C@@H]12 [MITOMYCIN]
Not Active: IC50 (Adenosine receptor A1) | IC50 (Adenosine receptor A3) | IC50 (D(4) dopamine receptor) | IC50 [1] | Ki [1] | IC50 [2] | Ki [2] | IC50 [3] | IC50 [4]

Cc1[nH]c(=O)c(C#N)cc1-c1ccncc1 [MILRINONE]
Not Active: IC50 (Adenosine receptor A1) | IC50 (Adenosine receptor A3) | IC50 (D(4) dopamine receptor) | IC50 [1] | Ki [1] | IC50 [2] | Ki [2] | IC50 [3] | IC50 [4]

CC(Cl)(Cl)Cl [TRICHLOROETHANE]
Not Active: IC50 (Adenosine receptor A1) | IC50 (Adenosine receptor A3) | IC50 (D(4) dopamine receptor) | IC50 [1] | Ki [1] | IC50 [2] | Ki [2] | IC50 [3] | IC50 [4]

CC[C@H](C)C(=O)O[C@H]1CCC=C2C=C[C@H](C)[C@H](CC[C@@H]3C[C@@H](O)CC(=O)O3)[C@H]21 [MEVASTATIN]
Not Active: IC50 (Adenosine receptor A1) | IC50 (Adenosine receptor A3) | IC50 (D(4) dopamine receptor) | IC50 [1] | Ki [1] | IC50 [2] | Ki [2] | IC50 [3] | IC50 [4]

CC(=O)O[C@]1(C(C)=O)CC[C@H]2[C@@H]3C[C@H](C)C4=CC(=O)CC[C@]4(C)[C@H]3CC[C@@]21C [MEDROXYPROGESTERONE ACETATE]
Not Active: IC50 (Adenosine receptor A1) | IC50 (Adenosine receptor A3) | IC50 (D(4) dopamine receptor) | IC50 [1] | Ki [1] | IC50 [2] | Ki [2] | IC50 [3] | IC50 [4]

CC[C@@]1(O)C(=O)OCc2c1cc1n(c2=O)Cc2cc3c(CN(C)C)c(O)ccc3nc2-1 [TOPOTECAN]
Not Active: IC50 (Adenosine receptor A1) | IC50 (Adenosine receptor A3) | IC50 (D(4) dopamine receptor) | IC50 [1] | Ki [1] | IC50 [2] | Ki [2] | IC50 [3] | IC50 [4]

CC#C[C@]1(O)CC[C@H]2[C@@H]3CCC4=CC(=O)CCC4=C3[C@@H](c3ccc(N(C)C)cc3)C[C@@]21C [MIFEPRISTONE]
Not Active: IC50 (Adenosine receptor A1) | IC50 (Adenosine receptor A3) | IC50 (D(4) dopamine receptor) | IC50 [1] | Ki [1] | IC50 [2] | Ki [2] | IC50 [3] | IC50 [4]
